In US20140148498A1, “METHODS AND COMPOSITIONS FOR THE TREATMENT OF MARFAN SYNDROME AND ASSOCIATED DISORDERS” (THE JOHNS HOPKINS UNIVERSITY, priority 2011, published 2014):
Entries after “also recorded” stand apart in the source; their conditions may differ.

Legend:
Fbn1^C1039G/+ mice [1] = assay: Aortic root growth by echocardiography, 7 months of treatment (Examples 3-5); format: in vivo; details: for Final absolute aortic root diameter: 7 months of treatment, mean +/- 2 SEM
Experimental: A head-to-head comparison of ACEi versus ARBs was performed. Fbn1^C1039G/+ mice and WT littermates were treated with hemodynamically equivalent doses (FIG. 8) of either the ACEi enalapril (10 to 15 mg/kg of body weight per day) or the ARB losartan (40 to 60 mg/kg per day) (R. D. Patten et al., Clin. Sci 104, 109 (2003)), beginning at 8 weeks of age, and were assessed with serial echocardiograms. […] It is noteworthy that losartan reduced aortic root growth in Fbn1^C1039G/+ mice, but had no effect in WT littermates (P=0.27). […] Whether AT2 signaling is needed to achieve losartan's full therapeutic benefit was assessed. AT2KO:Fbn1^C1039G/+ mice were treated with losartan from 8 weeks of age and followed by serial echocardiography until they were killed at 9 months of age (FIG. 2C).
(§1) All mice were cared for under strict compliance with the Animal Care and Use Committee of the Johns Hopkins University School of Medicine. The Fbn1^C1039G/+ and AT2KO lines were maintained n a pure C57BL/6 background (backcrossed for greater than 9 generations), allowing for valid comparisons. In order to further accommodate the potential for temporal- or background-specified variation, all comparisons were made between contemporary littermates when possible. The AT21C0 mice were obtained as a generous gift from Dr. Inagami (T. Ichiki et al., Nature 377, 748 (1995)). The Agtr2 gene resides on the X chromosome and therefore we used either male mice carrying the mutated allele (who are hemizygous) or homozygous females, both of which have been previously shown to be functionally null for the AT2 receptor (T. Ichiki et al., Nature 377, 748 (1995)). Mice were sacrificed with an inhalation overdose of halothane (Sigma-Aldrich, St. Louis). Mice underwent immediate laparotomy, descending abdominal aortic transection, and PBS (pH 7.4) was infused through the right and left ventricles to flush out the blood. Mice that were analyzed for Western Blot analysis had their proximal ascending aortas (root to right brachiocephalic trunk) immediately dissected out, flash frozen in liquid nitrogen and stored at −80d until further processing. Mice that were analyzed for aortic histology had latex injected under low pressure into the left ventricular apex until it was visible in the descending abdominal aorta. Mice that were analyzed for lung histology had their trachea intubated with a 20-gauge blunted needle, and 0.5% agar was infused under a low and constant pressure to gradually inflate the lungs. The trachea was then tied-off using vicryl and the needle was removed. Mice were fixed for 24 hours in 10% buffered formalin, after which the heart, aorta and lungs were removed and stored in 70% ethanol.
(§2) Mice were started on medication at 8 weeks of age and continued for 7 months. Losartan was dissolved in drinking water and filtered to reach a concentration of 0.6 g/L, giving an estimated daily dose of 40-60 mg/kg/day. Enalapril was dissolved in drinking water and filtered to reach a final concentration of 0.15 g/L, giving an estimated daily dose of 10-15 mg/kg/day. […] Spironolactone was dissolved in drinking water and filtered to give an estimated dose of 20 mg/kg/day, a dose previously shown to have in-vivo phenotypic benefit in cardiovascular disease states (S. Sakurabayashi-Kitade et al., Atherosclerosis 206, 54 (2009)). Placebo-treated animals received regular drinking water. Blood pressures were analyzed by taking 20 tail cuff blood pressures per day over 5 days in each mouse to habituate the mice to the tail cuff pressure system, and the blood pressures obtained on the last day were averaged. At least 4 mice for each treatment group were analyzed.
Nair hair removal cream was used on all mice the day prior to echocardiograms. All echocardiograms were performed on awake, unsedated mice using the Visualsonics Vevo 660 V1.3.6 imaging system and a 30 MHz transducer. Mice were imaged at baseline, 1 month after treatment and then every two months until the time of sacrifice. […]

Fbn1^C1039G/+ mice [2] = assay: Aortic wall architecture score (VVG staining); format: in vivo; details: FIG. 9
Experimental: Latex-infused ascending aortas were transected just above the level of the aortic valve, and 2-3 mm transverse sections were mounted in 4% agar prior to paraffin fixation. Five micrometer aortic sections underwent Verhoeff-van Giesen (VVG) staining and were imaged at 40× magnification, using a Nikon Eclipse E400 microscope. Wall thickness of the aortic media was measured by a single blinded observer at 16 different locations around the most proximal ascending aortic ring and averaged. Wall architecture of 4 representative sections for each mouse was assessed by the same 3 blinded observers and graded on an arbitrary scale of 1 (indicating no breaks in the elastic fiber) to 5 (indicating diffuse fragmentation), and the results were averaged. Elastic fiber content was quantified in four separate representative images of each section of the most proximal ascending aorta by a single blinded observer, using NIS Elements Advanced Research (Nikon, Japan). The aortic media and the elastic fibers were individually outlined and their areas calculated. The respective areas were averaged from all the images of a given aortic section and the ratio of elastic fiber content to total aortic media was determined. Individual lobes of the lungs were mounted in 4% agar and fixed in paraffin. Five micrometer lung sections underwent hematoxylin and eosin staining and were imaged at 10× magnification, using a Nikon Eclipse E400 microscope. Five fields were analyzed for each lobe of each lung by a single blinded observer, and a mean linear intercept was calculated using a previously described method (J. P. Habashi et al., Science 312, 117 (2006); and E. R. Neptune et al., Nat. Genet. 33, 407 (2003)).

Smad2 = assay: Western blot of aortic root and proximal ascending aorta: Smad2 activation (Examples 4-5); format: in vivo, mice
Description: as §1
Mouse aortic root and ascending aortas (aortic root excluding the aortic valve to origin of right brachiocephalic trunk) were harvested, snap-frozen in liquid nitrogen and stored at −80° C. until processed. Protein was extracted using the reagents and protocol from a Total Protein Extraction Kit containing protease inhibitor and Protein Phosphatase Inhibitor Cocktail (Millipore, MA). Aortas were homogenized using a pellet pestle motor (Kimble-Kontes, NJ) as per the extraction kit protocol. […] Equal protein loading of samples was determined by a protein assay (BioRad, CA), and confirmed by probing with antibodies against β-Actin or GAPDH (Sigma, Mo.). […] Blots were then washed in PBS-T, developed using SuperSignalWest HRP substrate (Pierce Scientific, IL), exposed to BioMax Scientific Imaging Film (Sigma, Mo.) and quantified using Imaged analysis software (NIH, MD).

AT2KO:Fbn1^C1039G/+ mice = assay: Systolic blood pressure by tail cuff, MFS mice lacking AT2; format: in vivo; details: AT2KO:Fbn1^C1039G/+ versus Fbn1^C1039G/+ mice, FIG. 8
Experimental: as §2

SMILES: CCCCc1nc(Cl)c(CO)n1Cc1ccc(-c2ccccc2-c2nn[nH]n2)cc1 [losartan]
- Final absolute aortic root diameter (Fbn1^C1039G/+ mice [1]; FIG. 2B): 1.96+/−0.09 mm
- Final absolute aortic root diameter (Fbn1^C1039G/+ mice [1]; FIG. 2C): 1.96+/−0.09 mm
- Aortic root growth over 7 months of treatment (Fbn1^C1039G/+ mice [1]; versus placebo, drug in drinking water from 8 weeks of age): significant regression in growth; also recorded: regression in aortic size
- Aortic wall architecture score (Fbn1^C1039G/+ mice [2]): significantly more beneficial than both placebo and enalapril treatment; also recorded: significant improvement
- Smad2 activation (Smad2; Fbn1^C1039G/+ mice, FIG. 10B): significantly decreased Smad2 activation
- Smad2 activation (Smad2; treated AT2KO:Fbn1^C1039G/+ versus treated Fbn1^C1039G/+ mice, FIG. 14): no significant change; also recorded: no significant difference
- Systolic blood pressure (AT2KO:Fbn1^C1039G/+ mice): no difference in blood pressure between the groups; also recorded: lowered blood pressure equally
